One test deals with c-fms (Homo sapiens (Human), UniProt P07333). The experiment in a line: c-fms autophosphorylation fluorescence polarization competition immunoassay (1 nM c-fms; peptide Pi assay). Format: biochemical. Particulars: read-out: 1 nM c-fms, peptide Pi assay IC-50. Here is the method: Fluorescence Polarization Competition Immunoassay
The assay buffer used was 100 mM 4-(2-hydroxyethyl)piperazine 1-ethanesulfonic acid (HEPES), pH 7.5, 1 mM 1,4-dithio-DL-threitol (DTT), 0.01% (v/v) Tween-20. Compounds were diluted in assay buffer containing 4% dimethylsulfoxide (DMSO) just prior to the assay. […] The kinase reaction was initiated by adding 2 μL of 5 mM ATP (Sigma) in assay buffer. […] Control reactions were ran in each plate: in positive and negative control wells, assay buffer (made 4% in DMSO) was substituted for the compound; in addition, positive control wells received 1.2 μL of 50 mM ethylenediaminetetraaceticacid (EDTA).
The plates were incubated at room temperature for 45 min. At the end of the incubation, the reaction was quenched with 1.2 μL of 50 mM EDTA (EDTA was not added to the positive control wells at this point; see above). Following a 5-min incubation, each well received 10 μL of a 1:1:3 mixture of anti-phosphotyrosine antibody, 10×, PTK green tracer, 10× (vortexed), FP dilution buffer, respectively (all from PanVera, cat. #P2837). The plate was covered, incubated for 30 min at room temperature and the fluorescence polarization was read on the Analyst. The instrument settings were: 485 nm excitation filter; 530 nm emission filter; Z height: middle of well; G factor: 0.93. […] The reported IC50 values are averages of three independent measurements.

The test system of test [1] is mouse bone-marrow derived macrophages (BMDM). In words: CSF-1-driven mouse bone-marrow derived macrophages proliferation assay (BrDU incorporation). The settings on record: mCSF driven proliferation, read-out: mCSF driven proliferation BMDM (Mouse) IC-50. Format: cell-based. As to the method: CSF-1-Driven Mouse Bone-Marrow Derived Macrophages Assay
Macrophages are derived by culturing mouse bone marrow in alpha-MEM supplemented with 10% FCS and 50 ng/ml recombinant mouse CSF-1 in bacteriologic dishes. On the sixth day, macrophages are detached from dishes, washed, and resuspended to 0.05 million cells/ml in alpha-MEM containing 10% FCS. One hundred ul of cell suspension are distributed per well into 96 well culture plates. Wells are further supplemented with the addition of 50 ul media containing 15 ng/ml CSF-1, 3 uM Indomethacin, and 3× of a dilution series of test compounds. The cells are cultured for 30 hrs at 37 degrees and 5% CO2. During the final six hours, cultures are supplemented with an additional 30 ul of media containing a 1:500 dilution of bromodeoxyuridine (BrDU). At the end of the culture period, the plates are spun at 1000 RPM for 1 minute and 130 ul of media is removed with a pipet and replaced with 150 ul of fixative solution for 1 hour @ room temperature. The fixative is then dispelled from the plates and the plates allowed to air dry. Incorporation of BrDU into the fixed, dried cells is quantified using a specific ELISA.

Sequence of c-fms (P07333 20-972): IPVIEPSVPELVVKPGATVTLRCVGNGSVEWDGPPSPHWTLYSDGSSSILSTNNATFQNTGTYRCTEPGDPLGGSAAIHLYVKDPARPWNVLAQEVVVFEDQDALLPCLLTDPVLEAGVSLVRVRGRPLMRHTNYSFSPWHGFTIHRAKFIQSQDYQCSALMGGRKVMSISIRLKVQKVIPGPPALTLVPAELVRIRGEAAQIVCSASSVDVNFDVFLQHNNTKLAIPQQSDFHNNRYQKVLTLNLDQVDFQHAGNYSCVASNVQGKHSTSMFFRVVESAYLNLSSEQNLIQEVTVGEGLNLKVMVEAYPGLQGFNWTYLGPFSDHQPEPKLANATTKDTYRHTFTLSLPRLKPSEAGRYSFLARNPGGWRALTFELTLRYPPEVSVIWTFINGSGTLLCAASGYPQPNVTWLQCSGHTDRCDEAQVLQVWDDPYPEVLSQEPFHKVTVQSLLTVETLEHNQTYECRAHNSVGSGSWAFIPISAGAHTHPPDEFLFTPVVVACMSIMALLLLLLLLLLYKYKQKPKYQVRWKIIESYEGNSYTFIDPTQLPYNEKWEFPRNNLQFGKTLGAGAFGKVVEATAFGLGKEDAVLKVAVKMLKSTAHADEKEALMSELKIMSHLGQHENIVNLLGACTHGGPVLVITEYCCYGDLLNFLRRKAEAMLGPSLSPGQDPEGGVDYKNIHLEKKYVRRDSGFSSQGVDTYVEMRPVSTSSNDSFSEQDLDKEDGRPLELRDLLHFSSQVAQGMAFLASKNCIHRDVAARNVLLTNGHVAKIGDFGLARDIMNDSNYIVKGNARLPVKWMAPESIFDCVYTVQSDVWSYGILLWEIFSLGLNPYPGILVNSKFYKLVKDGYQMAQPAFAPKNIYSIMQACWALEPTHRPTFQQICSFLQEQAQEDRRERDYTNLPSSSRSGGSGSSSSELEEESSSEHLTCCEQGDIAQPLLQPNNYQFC

Take `CC1(c2ccc(NC(=O)c3ncc(C#N)[nH]3)c(C3=CCCCC3)c2)OCCO1` [Example 1, 5-Cyano-1H-imidazole-2-carboxylic acid [2-cyclohex-1-enyl-4-(2-methyl-[1,3]dioxolan-2-yl)-phenyl]-amide]: the figures for the IC50 (on c-fms; in test [1]) were 3.4 nM and 48 nM, respectively.

As to `CC1(c2ccc(NC(=O)c3nc(C#N)c[nH]3)c(C3=CCCCC3)c2)OCCCO1` [Example 2, 4-Cyano-1H-imidazole-2-carboxylic acid [2-cyclohex-1-enyl-4-(2-methyl-[1,3]dioxan-2-yl)-phenyl]-amide], the figures for the IC50 (on c-fms; in test [1]) were 3.9 nM and 44 nM, respectively.

(Values after patent publication US8722718B2, “Inhibitors of C-FMS kinase” (Janssen Pharmaceutica NV, priority 2006, dated 2014).)
